The values that follow come from ChEMBL document CHEMBL3045429, “Exploration of antimicrobial potential of pyrazolo[3,4-b]pyridine scaffold bearing benzenesulfonamide and trifluoromethyl moieties” (2013).

SMILES strings stand for the structures. Values after ≈ are worked out from the molar mass of the structure shown. Active and inactive are the calls of the source. The calls are words filed in the database; no cut-off is given here. Where only a bound is given, the exact number is not on record here.

One test relates to Escherichia coli. As to the kind of experiment: Antibacterial activity against Escherichia coli MTCC 1652 assessed as growth inhibition at 4 mg/mL after 24 hr by agar well diffusion method. It counts as functional, organism-based.
In test [1] the test system is Staphylococcus aureus. As to the kind of experiment: Antibacterial activity against Staphylococcus aureus MTCC 96 assessed as growth inhibition at 4 mg/mL after 24 hr by agar well diffusion method. It counts as functional. Particulars: MTCC 96, 24 h, read-out: DIZ. For orientation: In agar diffusion tests the substance spreads into inoculated agar from a disc or well.

Test [2] concerns Bacillus subtilis. Briefly: Antibacterial activity against Bacillus subtilis MTCC 121 assessed as growth inhibition at 4 mg/mL after 24 hr by agar well diffusion method. It counts as functional. Particulars: MTCC 121, 24 h, read-out: DIZ.
The subject of test [3] is Bacillus subtilis. As to the kind of experiment: Antibacterial activity against Bacillus subtilis MTCC 121 assessed as growth inhibition after 24 hr by agar well diffusion method. In kind it is functional. Particulars: MTCC 121, 24 h.
Test [4] has as its system Staphylococcus aureus. As to the kind of experiment: Antibacterial activity against Staphylococcus aureus MTCC 96 assessed as growth inhibition after 24 hr by agar well diffusion method. Particulars: MTCC 96, 24 h. It counts as functional.
Test [5] has as its system Candida albicans. Briefly: Antifungal activity against Candida albicans MTCC 227 assessed as growth inhibition after 24 hr by agar well diffusion method. It counts as functional. Particulars: MTCC 227, 24 h.
Test [6] has as its system Saccharomyces cerevisiae. Briefly: Antifungal activity against Saccharomyces cerevisiae MTCC 170 assessed as growth inhibition after 24 hr by agar well diffusion method. It counts as functional. Particulars: MTCC 170, 24 h.
In test [7] the test system is Candida albicans. Briefly: Antifungal activity against Candida albicans MTCC 227 assessed as growth inhibition at 4 mg/mL after 24 hr by agar well diffusion method. In kind it is functional. Particulars: MTCC 227, 24 h, read-out: DIZ.
Test [8] deals with Saccharomyces cerevisiae. As to the kind of experiment: Antifungal activity against Saccharomyces cerevisiae MTCC 170 assessed as growth inhibition at 4 mg/mL after 24 hr by agar well diffusion method. In kind it is functional. Particulars: MTCC 170, 24 h, read-out: DIZ.
A further test relates to Pseudomonas aeruginosa. As to the kind of experiment: microbe, parasite or virus in culture. Particulars: MTCC 741, 24 h, read-out: DIZ.

Description for Pseudomonas aeruginosa: Antibacterial activity against Pseudomonas aeruginosa MTCC 741 assessed as growth inhibition at 4 mg/mL after 24 hr by agar well diffusion method

For orientation: MIC means the lowest concentration found to suppress growth. `Cc1cc(C(F)(F)F)c2c(-c3ccccc3)nn(-c3ccc(S(N)(=O)=O)cc3)c2n1`: the “growth inhibition (GI)” value with Escherichia coli is “inactive”. Further, the zone of inhibition at 4000 µg/mL in the test on Staphylococcus aureus [1] stood at 19.3 mm; in the test with Bacillus subtilis [2], 20.3 mm; with Candida albicans [7], 16.3 mm; with Saccharomyces cerevisiae [8] it was 15.3 mm. In addition, the MIC in the test on Bacillus subtilis [3], in the test with Staphylococcus aureus [4], with Candida albicans [5] and in the test with Saccharomyces cerevisiae [6] was 64 µg/mL (≈ 148 µM) in each case.
For the molecule `COc1ccc(-c2cc(C(F)(F)F)c3c(-c4ccccc4)nn(-c4ccc(S(N)(=O)=O)cc4)c3n2)cc1`, the “growth inhibition (GI)” value in the test on Escherichia coli was “inactive”. Also, the zone of inhibition at 4000 µg/mL turned out to be 19.3 mm with Staphylococcus aureus [1], 21.6 mm with Bacillus subtilis [2], 15.6 mm in the test with Candida albicans [7] and 14.6 mm with Saccharomyces cerevisiae [8]. Also, the MIC in the test on Bacillus subtilis [3] came to 32 µg/mL (≈ 61 µM); with Staphylococcus aureus [4], 64 µg/mL (≈ 122 µM); in the test with Candida albicans [5], 128 µg/mL (≈ 244 µM); in the test on Saccharomyces cerevisiae [6], 256 µg/mL (≈ 488 µM).
Take `Cc1ccc(-c2cc(C(F)(F)F)c3c(-c4ccccc4)nn(-c4ccc(S(N)(=O)=O)cc4)c3n2)cc1`: in the test with Escherichia coli, the “growth inhibition (GI)” value is “inactive”. Also, the zone of inhibition at 4000 µg/mL is 21.3 mm in the test with Staphylococcus aureus [1], 20.3 mm in the test on Bacillus subtilis [2], 16.3 mm in the test on Candida albicans [7] and 15.6 mm in the test with Saccharomyces cerevisiae [8]. The MIC in the test on Bacillus subtilis [3] is 64 µg/mL (≈ 126 µM); in the test on Staphylococcus aureus [4], 32 µg/mL (≈ 62.9 µM); with Candida albicans [5], 64 µg/mL (≈ 126 µM); in the test with Saccharomyces cerevisiae [6] it was 64 µg/mL (≈ 126 µM).
On to `NS(=O)(=O)c1ccc(-n2nc(-c3ccccc3)c3c(C(F)(F)F)cc(-c4ccc(Br)cc4)nc32)cc1`, for which the “growth inhibition (GI)” value with Escherichia coli is “inactive”. The zone of inhibition at 4000 µg/mL with Staphylococcus aureus [1] came to 18.3 mm; in the test with Bacillus subtilis [2], 17.6 mm; in the test with Candida albicans [7], 13.6 mm; with Saccharomyces cerevisiae [8] it was 14.6 mm. Moreover, the MIC in the test with Bacillus subtilis [3] was 64 µg/mL (≈ 112 µM); in the test on Staphylococcus aureus [4], 64 µg/mL (≈ 112 µM); with Candida albicans [5] it was more than 256 µg/mL; with Saccharomyces cerevisiae [6] it was 256 µg/mL (≈ 446 µM).
Turning to `NS(=O)(=O)c1ccc(-n2nc(-c3ccccc3)c3c(C(F)(F)F)cc(C(F)(F)F)nc32)cc1`, in the test on Escherichia coli, the “growth inhibition (GI)” value was “inactive”. In addition, the zone of inhibition at 4000 µg/mL in the test on Staphylococcus aureus [1] turned out to be 22.6 mm; with Bacillus subtilis [2] it was 21.6 mm; with Candida albicans [7], 15.6 mm; in the test with Saccharomyces cerevisiae [8], 14.6 mm. The minimum inhibitory concentration (MIC) in the test on Bacillus subtilis [3] turned out to be 32 µg/mL (≈ 65.8 µM); in the test on Staphylococcus aureus [4] it was 32 µg/mL (≈ 65.8 µM); with Candida albicans [5], 64 µg/mL (≈ 132 µM); in the test on Saccharomyces cerevisiae [6], 128 µg/mL (≈ 263 µM).
As to `NS(=O)(=O)c1ccc(-n2nc(-c3ccccc3)c3c(C(F)(F)F)cc(-c4ccccc4)nc32)cc1`, the “growth inhibition (GI)” value in the test on Escherichia coli is “inactive”. Moreover, the zone of inhibition at 4000 µg/mL with Staphylococcus aureus [1] was found to be 18.6 mm; in the test with Bacillus subtilis [2], 17 mm; in the test with Candida albicans [7] it was 15.3 mm; with Saccharomyces cerevisiae [8] it was 16.3 mm. Besides, the minimal inhibitory concentration (MIC) amounted to 128 µg/mL (≈ 259 µM) with Bacillus subtilis [3], 64 µg/mL (≈ 129 µM) with Staphylococcus aureus [4], 64 µg/mL (≈ 129 µM) in the test with Candida albicans [5] and 64 µg/mL (≈ 129 µM) with Saccharomyces cerevisiae [6].
In the case of `O=C(O)c1cn(C2CC2)c2cc(N3CCNCC3)c(F)cc2c1=O` [CIPROFLOXACIN], the zone of inhibition at 4000 µg/mL amounted to 26.6 mm with Staphylococcus aureus [1], 24 mm in the test with Bacillus subtilis [2] and 22 mm with Pseudomonas aeruginosa. For the same molecule, the MIC in the test on Bacillus subtilis [3] and in the test with Staphylococcus aureus [4] was 5 µg/mL (≈ 15.1 µM) each time.
On to `NS(=O)(=O)c1ccc(-n2nc(-c3ccc(Cl)cc3)c3c(C(F)(F)F)cc(C(F)(F)F)nc32)cc1`, for which the “growth inhibition (GI)” value with Escherichia coli is “inactive”. Moreover, the zone of inhibition at 4000 µg/mL in the test with Staphylococcus aureus [1] is 16.3 mm; with Bacillus subtilis [2], 15.6 mm; in the test on Candida albicans [7], 16.3 mm; in the test with Saccharomyces cerevisiae [8], 14.6 mm. The minimum inhibitory concentration (MIC) in the test on Bacillus subtilis [3] came to 128 µg/mL (≈ 246 µM); in the test on Staphylococcus aureus [4], 128 µg/mL (≈ 246 µM); with Candida albicans [5] it was 64 µg/mL (≈ 123 µM); in the test on Saccharomyces cerevisiae [6], 64 µg/mL (≈ 123 µM).
